“Also recorded” adds a separate entry of the source. Peptide text beside a SMILES is read from it.
Experiments:
[1] = Net charge of self-assembling peptides in solution; type: physicochemical; settings: for net charge as a function of pH: around neutral pH; for Net charge at pH 7.5: in solution at pH 7.5
From the text: Several exemplary self-assembling peptides described herein (Table 5; SEQ ID NO:21-40) were designed to have a net charge, positive or negative, when formulated at pH 7.5. In contrast, previously-described self-assembling peptides have a net zero charge at the same pH.

[2] = Viscosity determination at increasing shear rate (shear thinning); type: physicochemical; settings: pH 7.5
Method: Peptides formulated as aqueous solutions (200 μL), were placed between the plates of a rheometer (DHR-1, TA Instruments, 20 mm plates at a measuring geometry of 500 μm) and the viscosity was measured from 0.001 s^−1 to 100 s^−1 shear rate. Thixotropic Measurements
In some clinical applications, administration of pharmaceutical compositions comprising self-assembling peptides requires exposing the compositions to pressure and/or shear thinning (e.g., during injection through a syringe needle or transferred via a pump-based system). […] To determine the shear thinning properties of pharmaceutical compositions of the self-assembling peptides formulated at pH 7.5, formulations comprising varying ionic strengths were prepared using different concentrations of sodium chloride, and viscosity measured at increasing shear rates. Thixotropic properties of formulations were also determined as well as the storage modulus over time at specific frequencies and pressure.
FIGS. 6-8 show the experimentally determined viscosity of aqueous pharmaceutical compositions comprising either 1% (w/v) KLNL12 (SEQ ID NO:21), 1% (w/v) IQIK13 (SEQ ID NO:28), or 1% (w/v) NLEL12 (SEQ ID NO:33), at pH 7.5. FIGS. 9 and 10 show the experimentally determined viscosity of aqueous pharmaceutical compositions comprising either 1% KLNL12 (SEQ ID NO:21) or 1% NLEL12 (SEQ ID NO:33), and 0.9% NaCl (to mimic physiological conditions) at pH 7.5. […] That is, decreased viscosity with increasing sheer rate. This property may advantageously facilitate application and use of the pharmaceutical compositions (e.g., due to decreased viscosity while pumping) while maintaining a desirable viscosity at a site of application (e.g., where no sheer force is being applied).

[3] = Thixotropic measurements (storage modulus after shear); type: physicochemical; settings: 1% peptide, 0.9% NaCl, pH 7.5; 1000 1/s shear for 1 min
Method: Peptides formulated as aqueous solutions (200 μL), were placed between the plates of a rheometer (DHR-1, TA Instruments, 20 mm plates at a measuring geometry of 500 μm) and the sample was exposed to a fast plate rotation at 1000 s^−1 of shear rate for 1 minute and the storage modulus was measured at 1 rad s^−1 angular frequency for 10 minutes.
FIGS. 11 and 12 show the thixotropic properties of pharmaceutical compositions comprising 1% KLNL12 (SEQ ID NO:21) or 1% NLEL12 (SEQ ID NO:33), and 0.9% NaCl, at pH 7.5, after shear stress is removed. The aqueous pharmaceutical compositions were flowed at 1000 l/s of shear rate for 1 min and their storage modulus at 10 rad/s of frequency and at 0.1 Pa of stress was tested over time.

[4] = Frequency sweep test (storage modulus) before and after exposure to DMEM; type: physicochemical; settings: pH 7.5; for rheological properties (mechanical strength) before and after exposure to DMEM: 1% (w/v) peptide; for increase of mechanical strength after exposure to DMEM: 0.15% (w/v)
Method: Peptides formulated as aqueous solutions were placed between the plates of a rheometer (DHR-1, TA Instruments, 20 mm plates at a measuring geometry of 500 μm or 40 mm cone and plate at a measuring geometry of 2.0° of cone angle) and frequency stress sweep tests were performed at 0.1 Hz to 10 Hz of frequency with 0.1% of strain; measurements were performed after 2 minutes of relaxation time at 37° C. To do frequency sweep tests after exposure to Dulbecco's Modified Eagle Medium (DMEM), 10 mL of DMEM was added in chamber surrounding the plates, the sample in plates was submerged into the DMEM and the frequency test was performed as described after 20 minutes.
Rheological properties of aqueous pharmaceutical compositions comprising the exemplary self-assembling peptides KLNL12 (SEQ ID NO:21), KIQI13 (SEQ ID NO:29), or NLEL12 (SEQ ID NO:33) were determined by performing a frequency sweep test over storage modulus.
In some embodiments, peptides formulated as aqueous solutions, volume 700 μl, were placed between the plates of a rheometer (DHR-1, TA Instruments, 40 mm cone and plate at a measuring geometry of 2.0° of cone angle) and frequency sweep tests were performed at 0.1 Hz to 10 Hz of frequency with 0.1% of strain; measurements were performed after 2 minutes of relaxation time at 37° C. In some embodiments, frequency sweep tests were performed after exposure to Dulbecco's Modified Eagle Medium (DMEM), where 10 mL of DMEM was added in chamber surrounding the plates, the sample in plates was submerged into the DMEM and the frequency test was performed as described after 20 minutes.

pig stomach submucosa = experiment: Submucosal injection in in vivo porcine model, stomach
Method: An in vivo porcine animal model was used to perform endoscopic mucosal and submucosal dissections as described in Uraoka et al. (2009) Drug Des. Devel. Ther. 2:131-8, incorporated herein by reference. Briefly, 2 mL of select peptide formulations were injected in between the […] in stomach of a pig and the submucosa was dissected using electro-knife. The gross appearance of the injection site and of dissected submucosal tissues at the injection sites were analyzed. […] Therefore, an in vivo porcine model system was used to assess the ability of these compositions to induce submucosal elevation upon injection into gastrointestinal submucosa, and the degree of tissue damage. In this model, submucosal injections with liquid compositions were performed and the morphology of the site of injection analyzed. Submucosal injection with aqueous solutions is used during the excision of lesions from the gastrointestinal tract in order to facilitate removal of the lesion by providing a safety cushion during resection (see, e.g., Kim et al. (2013) World J. Gastroenterol. 19(20): 3069-76, incorporated herein by reference). Here, aqueous pharmaceutical compositions comprising three exemplary self-assembling peptides formulated at pH 7.5: KLNL12 (SEQ ID NO:21), NLKL12 (SEQ ID NO:23) or KIQI13 (SEQ ID NO:29), were compared to an aqueous pharmaceutical composition comprising the previously described RADA16 self-assembling peptide (formulated at pH 2.5), a 0.4% solution of sodium hyaluronate (MucoUp®, Boston Scientific Japan K.K., Tokyo, Japan), and saline, pH 7.5.

porcine esophagus mucosa = experiment: Submucosal injection in in vivo porcine esophagus
Method: In another embodiment, mucosal aggregation visualized as white precipitate near the injection site was evaluated in an in vivo porcine esophagus.

[5] = Appearance (solubility) of aqueous compositions at pH 2.5 and pH 7.5; type: physicochemical
Method: To determine the solubility of exemplary self-assembling peptides in aqueous pharmaceutical compositions formulated at acidic and neutral pH, the appearance of the pharmaceutical compositions was assessed. Homogenous and transparent appearance reflects sufficient solubility of the peptides in solution and minimal hydrogel formation. […] The appearance of exemplary self-assembling peptides at pH 2.5 and pH 7.5 is shown below in Table 6 and FIG. 20.

[6] = 2 mL of 0.1% (w/v) peptide, 0.9% NaCl, pH 7.5, pig stomach

Q: What does the source list for `CC(=O)N[C@@H](CCCCN)C(=O)N[C@@H](CC(C)C)C(=O)N[C@@H](CC(N)=O)C(=O)N[C@@H](CC(C)C)C(=O)N[C@@H](CCCCN)C(=O)N[C@@H](CC(C)C)C(=O)N[C@@H](CC(N)=O)C(=O)N[C@@H](CC(C)C)C(=O)N[C@@H](CCCCN)C(=O)N[C@@H](CC(C)C)C(=O)N[C@@H](CC(N)=O)C(=O)N[C@@H](CC(C)C)C(N)=O` [KLNL12, Ac-KLNLKLNLKLNL-NH2] (Ac-KLNLKLNLKLNL-NH2)?
A: net charge as a function of pH [1]: about +3; Net charge at pH 7.5 [1]: +3; viscosity in response to increasing shear rate ([2]; 1% (w/v) peptide): exhibit sheer thinning; viscosity in response to increasing shear rate ([2]; 1% peptide, 0.9% NaCl): exhibit sheer thinning; thixotropic properties (storage modulus over time after shear stress is removed) [3]: exhibited thixotropic properties; rheological properties (mechanical strength) before and after exposure to DMEM ([4]; 0.9% NaCl): increased after DMEM treatment; rheological properties (mechanical strength) before and after exposure to DMEM [4]: increased after DMEM treatment; submucosal elevation after injection (pig stomach submucosa; [6]): resulted in submucosal elevation; submucosal elevation over time compared with saline and MucoUp (pig stomach submucosa; [6]): better submucosal elevation than saline and MucoUp®

Q: Which “net charge as a function of pH” value [1] does the source give for `CC(=O)N[C@@H](CC(N)=O)C(=O)N[C@@H](CC(C)C)C(=O)N[C@@H](CCC(=O)O)C(=O)N[C@@H](CC(C)C)C(=O)N[C@@H](CC(N)=O)C(=O)N[C@@H](CC(C)C)C(=O)N[C@@H](CCC(=O)O)C(=O)N[C@@H](CC(C)C)C(=O)N[C@@H](CC(N)=O)C(=O)N[C@@H](CC(C)C)C(=O)N[C@@H](CCC(=O)O)C(=O)N[C@@H](CC(C)C)C(N)=O` [NLEL12, Ac-NLELNLELNLEL-NH2] (Ac-NLELNLELNLEL-NH2) here?
A: about −3

Q: And the “Net charge at pH 7.5” value [1]?
A: −3

Q: What about the “viscosity in response to increasing shear rate” value ([2]; 1% (w/v) peptide) of the same compound?
A: exhibit sheer thinning

Q: And the “viscosity in response to increasing shear rate” value ([2]; 1% peptide, 0.9% NaCl)?
A: exhibit sheer thinning

Q: What about the “thixotropic properties (storage modulus over time after shear stress is removed)” value [3] of the same compound?
A: exhibited thixotropic properties

Q: And the “rheological properties (mechanical strength) before and after exposure to DMEM” value ([4]; 0.9% NaCl)?
A: increased after DMEM treatment

Q: What about the “rheological properties (mechanical strength) before and after exposure to DMEM” value [4] of the same compound?
A: increased after DMEM treatment

Q: And the “mucosal aggregation at injection sites” value (porcine esophagus mucosa; pig, in vivo)?
A: mucosal aggregation was not observed

Q: What about the “Appearance of stomach mucosa” value (porcine esophagus mucosa; pig, in vivo, pH 7.5) of the same compound?
A: clear/transparent

Q: For `CC(=O)N[C@@H](CCC(N)=O)C(=O)N[C@@H](CC(C)C)C(=O)N[C@@H](CCC(=O)O)C(=O)N[C@@H](CC(C)C)C(=O)N[C@@H](CCC(N)=O)C(=O)N[C@@H](CC(C)C)C(=O)N[C@@H](CCC(=O)O)C(=O)N[C@@H](CC(C)C)C(=O)N[C@@H](CCC(N)=O)C(=O)N[C@@H](CC(C)C)C(=O)N[C@@H](CCC(=O)O)C(=O)N[C@@H](CC(C)C)C(N)=O` [QLEL12, Ac-QLELQLELQLEL-NH2] (Ac-QLELQLELQLEL-NH2), which “rheological property versus peptide concentration” value ([4]; 0.1% to 0.3% (w/v), 0.9% NaCl) is on record?
A: linear relationship

Q: And the “increase of mechanical strength after exposure to DMEM” value (“increase of mechanical strength” below) ([4]; 0.9% NaCl, frequency 0.1 Hz)?
A: 23 fold

Q: What about the “increase of mechanical strength” value ([4]; 0.9% NaCl, frequency 1 Hz) of the same compound?
A: 20 fold

Q: What about the “increase of mechanical strength” value ([4]; 0.9% NaCl, frequency 10 Hz) of the same compound?
A: 9 fold

Q: What about the “Appearance of stomach mucosa” value (pig stomach submucosa; 0.2% (w/v) peptide with NaCl 0.9%, pH 7.5, 2 mL injected) of the same compound?
A: no mucosal aggregation was observed; also recorded: do not appear to alter submucosal tissue morphology; also recorded: clear/transparent

Q: And the “Appearance of stomach mucosa” value (porcine esophagus mucosa; porcine esophagus, 0.2% (w/v) peptide with NaCl 0.9%, pH 7.5)?
A: clear/transparent

Q: What about the “mucosal aggregation at injection sites” value (porcine esophagus mucosa; porcine esophagus, compositions of Table 9) of the same compound?
A: mucosal aggregation was not observed

Q: Which “Appearance at different pH: At pH 7.5” value [5] does the source give for Ac-IEIKIEIKIEIKI-NH2 [IEIK13] here?
A: phase separation and cloudy appearance

Q: Which “Net charge at pH 7.5” value [1] does the source give for Ac-IQIKIQIKIQIKI-NH2 [IQIK13] here?
A: +3

Q: And the “viscosity in response to increasing shear rate” value ([2]; 1% (w/v) peptide)?
A: exhibit sheer thinning

Q: With “Ac-KLDLKLDLKLDL-NH2 [KLDL12, reference compound]” as the compound, how does the “Net charge at pH 7.5” value [1] read?
A: 0

Q: And the “Net charge at pH 7.5” value ([1]; listed as KLD12)?
A: about zero

Q: What about the “Appearance at different pH: At pH 7.5” value [5] of the same compound?
A: phase separation and cloudy appearance

Q: Which results are given for “Ac-RADARADARADARADA-NH2 [RADA16, reference compound]”?
A: net charge as a function of pH [1]: about 0; Appearance at different pH: At pH 7.5 [5]: precipitates; also recorded: phase separation and cloudy appearance; period after injection until mucosal aggregation (pig stomach submucosa; pig, in vivo, pH 2.5): 10 to 15 min; mucosal aggregation at injection sites (porcine esophagus mucosa; pig, in vivo): Mucosal aggregation was observed; Appearance of stomach mucosa (porcine esophagus mucosa; pig, in vivo, pH 2.5): cloudy/aggregation
